Reference: ChEMBL document CHEMBL3045485, “Synthesis of combretastatin analogs: evaluation of in vitro anticancer activity and molecular docking studies” (Med Chem Res, 2012)

Legend:
[1] = system: A549; experiment: Cytotoxicity against Homo sapiens (human) A549 cells assessed as growth inhibition at 1 x 10^-4 mole after 48 hr by SRB assay; assay type: functional
[2] = system: IGROV-1; experiment: Cytotoxicity against Homo sapiens (human) IGROV1 cells assessed as growth inhibition at 1 x 10^-4 mole after 48 hr by SRB assay; assay type: functional
[3] = system: A549; experiment: Cytotoxicity against Homo sapiens (human) A549 cells assessed as growth inhibition at 5 x 10^-5 mole after 48 hr by SRB assay; assay type: functional
[4] = system: SF-295; experiment: Cytotoxicity against Homo sapiens (human) SF295 cells assessed as growth inhibition at 5 x 10^-5 mole after 48 hr by SRB assay; assay type: functional
[5] = system: MCF7; experiment: Cytotoxicity against Homo sapiens (human) MCF-7 cells assessed as growth inhibition at 1 x 10^-4 mole after 48 hr by SRB assay; assay type: functional
[6] = system: MCF7; experiment: Cytotoxicity against Homo sapiens (human) MCF-7 cells assessed as growth inhibition at 5 x 10^-5 mole after 48 hr by SRB assay; assay type: functional
[7] = system: SF-295; experiment: Cytotoxicity against Homo sapiens (human) SF295 cells assessed as growth inhibition at 1 x 10^-4 mole after 48 hr by SRB assay; assay type: functional
[8] = system: COLO 205; experiment: Cytotoxicity against Homo sapiens (human) COLO205 cells after 48 hr by SRB assay; assay type: functional, cell-based; details: COLO 205, 48 h, pooled result: one value given for 7 cell lines, strains, targets or settings
[9] = system: IGROV-1; experiment: Cytotoxicity against Homo sapiens (human) IGROV1 cells assessed as growth inhibition at 5 x 10^-5 mole after 48 hr by SRB assay; assay type: functional
[10] = system: PC-3; experiment: Cytotoxicity against Homo sapiens (human) PC3 cells assessed as growth inhibition at 1 x 10^-4 mole after 48 hr by SRB assay; assay type: functional
[11] = system: PC-3; experiment: Cytotoxicity against Homo sapiens (human) PC3 cells assessed as growth inhibition at 5 x 10^-5 mole after 48 hr by SRB assay; assay type: functional
[12] = system: THP-1; experiment: Cytotoxicity against Homo sapiens (human) THP1 cells assessed as growth inhibition at 5 x 10^-5 mole after 48 hr by SRB assay; assay type: functional
[13] = system: THP-1; experiment: Cytotoxicity against Homo sapiens (human) THP1 cells assessed as growth inhibition at 1 x 10^-4 mole after 48 hr by SRB assay; assay type: functional
[14] = system: COLO 205; experiment: Cytotoxicity against Homo sapiens (human) COLO205 cells assessed as growth inhibition at 5 x 10^-5 mole after 48 hr by SRB assay; assay type: functional
[15] = system: COLO 205; experiment: Cytotoxicity against Homo sapiens (human) COLO205 cells assessed as growth inhibition at 1 x 10^-4 mole after 48 hr by SRB assay; assay type: functional
[16] = system: SF-295; experiment: Cytotoxicity against Homo sapiens (human) SF295 cells assessed as growth inhibition at 1 x 10^-6 mole after 48 hr by SRB assay; assay type: functional
[17] = system: MCF7; experiment: Cytotoxicity against Homo sapiens (human) MCF-7 cells assessed as growth inhibition at 1 x 10^-6 mole after 48 hr by SRB assay; assay type: functional
[18] = system: THP-1; experiment: Cytotoxicity against Homo sapiens (human) THP1 cells assessed as growth inhibition at 2 x 10^-5 mole after 48 hr by SRB assay; assay type: functional
[19] = system: COLO 205; experiment: Cytotoxicity against Homo sapiens (human) COLO205 cells assessed as growth inhibition at 2 x 10^-5 mole after 48 hr by SRB assay; assay type: functional
[20] = system: PC-3; experiment: Cytotoxicity against Homo sapiens (human) PC3 cells assessed as growth inhibition at 1 x 10^-5 mole after 48 hr by SRB assay; assay type: functional
[21] = system: MCF7; experiment: Cytotoxicity against Homo sapiens (human) MCF-7 cells assessed as growth inhibition at 1 x 10^-5 mole after 48 hr by SRB assay; assay type: functional
[22] = system: A549; experiment: Cytotoxicity against Homo sapiens (human) A549 cells assessed as growth inhibition at 1 x 10^-5 mole after 48 hr by SRB assay; assay type: functional
[23] = system: IGROV-1; experiment: Cytotoxicity against Homo sapiens (human) IGROV1 cells assessed as growth inhibition at 1 x 10^-5 mole after 48 hr by SRB assay; assay type: functional

O=C(O)/C(=C\c1ccccc1)c1ccccc1
growth inhibition (GI) [1]: 54%
growth inhibition (GI) [2]: 0%
growth inhibition (GI) [3]: 52%
growth inhibition (GI) [4]: 14%
growth inhibition (GI) [5]: 41%
growth inhibition (GI) [6]: 29%
growth inhibition (GI) [7]: 25%
IC50 [8]: 85.4 µM
growth inhibition (GI) [9]: 0%
growth inhibition (GI) [10]: 4%
growth inhibition (GI) [11]: 0%

O=C(O)/C(=C\c1cccc(O)c1O)c1ccccc1
growth inhibition (GI) [1]: 52%
growth inhibition (GI) [2]: 31%
growth inhibition (GI) [3]: 52%
growth inhibition (GI) [5]: 26%
growth inhibition (GI) [6]: 14%
IC50 [8]: 96.5 µM
growth inhibition (GI) [9]: 15%
growth inhibition (GI) [10]: 74%
growth inhibition (GI) [11]: 31%

O=C(O)/C(=C\c1ccc(Cl)cc1)c1ccccc1
growth inhibition (GI) [1]: 61%
growth inhibition (GI) [2]: 0%
growth inhibition (GI) [3]: 61%
growth inhibition (GI) [5]: 22%
growth inhibition (GI) [6]: 10%
IC50 [8]: 34 µM
growth inhibition (GI) [9]: 0%
growth inhibition (GI) [10]: 42%
growth inhibition (GI) [11]: 14%

CC(=O)Oc1ccccc1/C=C(\C(=O)O)c1ccccc1
growth inhibition (GI) [1]: 10%
growth inhibition (GI) [2]: 18%
growth inhibition (GI) [3]: 10%
growth inhibition (GI) [5]: 20%
growth inhibition (GI) [6]: 6%
growth inhibition (GI) [9]: 6%
growth inhibition (GI) [10]: 60%
growth inhibition (GI) [11]: 53%

O=C(O)/C(=C\c1cccc(Cl)c1)c1ccccc1
growth inhibition (GI) [1]: 32%
growth inhibition (GI) [2]: 38%
growth inhibition (GI) [3]: 32%
growth inhibition (GI) [5]: 0%
growth inhibition (GI) [6]: 0%
growth inhibition (GI) [9]: 0%
growth inhibition (GI) [10]: 68%
growth inhibition (GI) [11]: 30%

O=C(O)/C(=C\c1ccccc1Cl)c1ccccc1
growth inhibition (GI) [1]: 12%
growth inhibition (GI) [2]: 42%
growth inhibition (GI) [3]: 12%
growth inhibition (GI) [5]: 10%
growth inhibition (GI) [6]: 5%
growth inhibition (GI) [9]: 32%
growth inhibition (GI) [10]: 52%
growth inhibition (GI) [11]: 36%

O=C(O)/C(=C\c1cccc2ccccc12)c1ccccc1
growth inhibition (GI) [1]: 0%
growth inhibition (GI) [3]: 0%
growth inhibition (GI) [12]: 0%
IC50 [8]: > 100 µM
growth inhibition (GI) [13]: 22%
growth inhibition (GI) [14]: 51%
growth inhibition (GI) [10]: 35%
growth inhibition (GI) [15]: 70%
growth inhibition (GI) [11]: 26%

COc1ccc(OC)c(/C=C(\C(=O)O)c2ccccc2)c1
growth inhibition (GI) [1]: 10%
growth inhibition (GI) [3]: 0%
growth inhibition (GI) [12]: 0%
growth inhibition (GI) [13]: 4%
growth inhibition (GI) [14]: 0%
growth inhibition (GI) [10]: 0%
growth inhibition (GI) [15]: 0%
growth inhibition (GI) [11]: 0%

COc1ccc(/C=C(\C(=O)O)c2ccccc2)c(OC)c1OC
growth inhibition (GI) [1]: 0%
growth inhibition (GI) [3]: 0%
growth inhibition (GI) [12]: 0%
growth inhibition (GI) [13]: 0%
growth inhibition (GI) [14]: 0%
growth inhibition (GI) [10]: 7%
growth inhibition (GI) [15]: 0%
growth inhibition (GI) [11]: 0%

O=C(O)/C(=C\c1ccccc1[N+](=O)[O-])c1ccccc1
growth inhibition (GI) [1]: 25%
growth inhibition (GI) [3]: 15%
growth inhibition (GI) [12]: 0%
growth inhibition (GI) [13]: 0%
growth inhibition (GI) [14]: 32%
growth inhibition (GI) [10]: 22%
growth inhibition (GI) [15]: 60%
growth inhibition (GI) [11]: 10%

O=C(O)/C(=C\C=C\c1ccccc1)c1ccccc1
growth inhibition (GI) [1]: 43%
growth inhibition (GI) [3]: 10%
growth inhibition (GI) [12]: 8%
growth inhibition (GI) [13]: 35%
growth inhibition (GI) [14]: 15%
growth inhibition (GI) [10]: 9%
growth inhibition (GI) [15]: 44%
growth inhibition (GI) [11]: 0%

COc1cc(OC)c(OC)cc1/C=C(\C(=O)O)c1ccccc1
growth inhibition (GI) [1]: 20%
growth inhibition (GI) [3]: 0%
growth inhibition (GI) [12]: 0%
growth inhibition (GI) [13]: 21%
growth inhibition (GI) [14]: 5%
growth inhibition (GI) [10]: 28%
growth inhibition (GI) [15]: 16%
growth inhibition (GI) [11]: 4%

COc1ccc(/C=C(\C(=O)O)c2ccccc2)cc1O
growth inhibition (GI) [1]: 20%
growth inhibition (GI) [2]: 17%
growth inhibition (GI) [3]: 0%
growth inhibition (GI) [4]: 0%
growth inhibition (GI) [5]: 24%
growth inhibition (GI) [6]: 14%
growth inhibition (GI) [7]: 12%
growth inhibition (GI) [9]: 8%
growth inhibition (GI) [10]: 23%
growth inhibition (GI) [11]: 12%

O=C(O)/C(=C\c1ccc2c(c1)OCO2)c1ccccc1
growth inhibition (GI) [1]: 45%
growth inhibition (GI) [2]: 32%
growth inhibition (GI) [3]: 0%
growth inhibition (GI) [4]: 15%
growth inhibition (GI) [5]: 39%
growth inhibition (GI) [6]: 32%
growth inhibition (GI) [7]: 38%
growth inhibition (GI) [9]: 0%
growth inhibition (GI) [10]: 39%
growth inhibition (GI) [11]: 11%

COc1cc(/C=C(\C(=O)O)c2ccccc2)cc(OC)c1OC
growth inhibition (GI) [1]: 65%
growth inhibition (GI) [2]: 1%
growth inhibition (GI) [3]: 21%
growth inhibition (GI) [4]: 13%
growth inhibition (GI) [5]: 63%
growth inhibition (GI) [6]: 54%
growth inhibition (GI) [7]: 25%
IC50 [8]: 88 µM
growth inhibition (GI) [9]: 0%
growth inhibition (GI) [10]: 22%
growth inhibition (GI) [11]: 10%

COc1cccc(/C=C(\C(=O)O)c2ccccc2)c1OC
growth inhibition (GI) [1]: 89%
growth inhibition (GI) [2]: 11%
growth inhibition (GI) [3]: 60%
growth inhibition (GI) [4]: 8%
growth inhibition (GI) [5]: 52%
growth inhibition (GI) [6]: 25%
growth inhibition (GI) [7]: 24%
IC50 [8]: 3.9 µM
growth inhibition (GI) [9]: 6%
growth inhibition (GI) [10]: 4%
growth inhibition (GI) [11]: 2%

COc1cccc2c1C(=O)c1c(O)c3c(c(O)c1C2=O)C[C@@](O)(C(=O)CO)C[C@@H]3O[C@H]1C[C@H](N)[C@H](O)[C@H](C)O1.Cl [DOXORUBICIN HYDROCHLORIDE]
growth inhibition (GI) [16]: 87%
growth inhibition (GI) [17]: 77%

O=c1[nH]cc(F)c(=O)[nH]1 [FLUOROURACIL]
growth inhibition (GI) [18]: 69%
growth inhibition (GI) [19]: 74%

CO[C@@]12[C@H](COC(N)=O)C3=C(C(=O)C(C)=C(N)C3=O)N1C[C@@H]1N[C@@H]12 [MITOMYCIN]
growth inhibition (GI) [20]: 58%
growth inhibition (GI) [21]: 65%

CC(=O)O[C@H]1C(=O)[C@@]2(C)[C@H]([C@H](OC(=O)c3ccccc3)[C@]3(O)C[C@H](OC(=O)[C@H](O)[C@@H](NC(=O)c4ccccc4)c4ccccc4)C(C)=C1C3(C)C)[C@]1(OC(C)=O)CO[C@@H]1C[C@@H]2O [PACLITAXEL]
growth inhibition (GI) [22]: 67%
growth inhibition (GI) [23]: 66%
